Data: patent publication US12427346B2, “P62 ligand compound, and composition for preventing, ameliorating or treating proteinopathies comprising the same” (AUTOTAC INC., priority 2018, dated 2025)
Counter-ions that a name gives are not always drawn.

Key:
Format in all cases: cell-based, human
p62 and LC3 [1] = assay: Autophagy activity of control compounds by immunofluorescence staining and confocal microscopy (Experimental Example 6); settings: different concentrations, FIG. 7
Description: In order to confirm p62 protein activity and the activity level of autophagy phenomenon of control compounds (YOK-A-1104, YOK-G-1104, YTK-1005, YTK-1105-1), immunofluorescence staining was performed in the same manner as in Experimental Example 4 by using p62 and LC3 as markers. YOK-A-1104 and YOK-G-1104 are compounds having the following structures.
The compounds were treated at different concentrations, and intracellular puncta of p62 or LC3, that is, the degree to which autophagosome was formed and p62 was delivered was observed by a confocal microscopy.

LC3 [2] = assay: Autophagy activity in cultured cells by immunoblotting, treatment time (Experimental Example 3); settings: HeLa cells; 5 μM for 1, 3, 6, 12, 24, 48 hours or 10 μM for 24 hours; immunoblot, FIG. 4
Description: In order to investigate the autophagy activity efficacy by the compounds (Examples 1-25), immunoblotting was performed in the same manner as in Experimental Example 2 using LC3 as a marker. As for the difference, in order to evaluate the treatment time required for activation and the activity retention time, 5 μM of the representative compounds selected among the present compounds (Example 5 (YTK-1005), Example 6 (YTK-1205), Example 7 (YTK-1305), Example 2 (YTK-2205), Example 3 (YTK-3305), Example 14 (YTK-1108), Example 8 (YTK-105), Example 9 (YTK-205)) were treated for 1, 3, 6, 12, 24, 48 hours. On the other hand, 10 μM of the representative compounds selected among the present compounds (Example 10 (YT 5-1), Example 11 (YT 5-2), Example 16 (YT 8-8), Example 15 (YT 8-7), Example 17 (YTK-107), Example 18 (YTK-207), Example 20 (ATB10041), Example 21 (ATB10042), Example 22 (ATB10043), Example 23 (ATB10044), Example 24 (ATB10045), Example 25 (ATB10046)) were treated for 24 hours.

LC3 [3] = assay: Autophagy activity in cultured cells by immunoblotting, concentration series (Experimental Example 2); settings: HeLa cells; 1, 2, 5, 10 and 20 μM, 24 hours; immunoblot, FIG. 3
Description: In order to evaluate the autophagy activity efficacy by the compounds (Examples 1-25), HeLa cell line, which is a cell line derived from a cervical cancer patient, was cultured using a DMEM medium containing 10% FBS and 1% streptomycin/penicillin in an incubator with 5% carbon dioxide. As the representative compounds among the present compounds, the compounds of Examples 1, 2, 3, 5, 6, 7, 8, 9, 12 and 13 (Example 5 (YTK-1005), Example 1 (YTK-1105), Example 6 (YTK-1205), Example 7 (YTK-1305), Example 2 (YTK-2205), Example 3 (YTK-3305), Example 8 (YTK-105), Example 9 (YTK-205), Example 14 (YTK-1108), Example 12 (YT 5-7), Example 13 (YT 5-8)), Example 20 (ATB10041), Example 21 (ATB10042), Example 22 (ATB10043), Example 23 (ATB10044), Example 24 (ATB10045), and Example 25 (ATB10046)) were selected. In order to measure autophagy activity according to the treatment with these selected representative compounds, the respective cells were dispensed into 6 well plates. Additional cultures were performed for 24 hours so that the cells were completely attached to the surface of the plate. To find the concentration at which the respective compounds could increase the phenomenon of autophagy, the test compounds were diluted at 1, 2, 5, 10 and 20 μM and treated. After treatment with the respective compounds, the cells were cultured again in a cell incubator for 24 hours, and then the cells were collected. To extract proteins from the collected cells, 100 ul of lysis buffer (20 mM Tris (pH 7.4), 150 mM NaCl, 1% Triton X-100, 2 mM NaF, 2 mM EDTA, 2 mM beta-glycerophosphate, 5 mM sodium orthovanadate, 1 mM PMSF, leupeptin, aprotinin) was injected into each sample, and cells were lysed. Based on the measured total protein concentration, a sample buffer was added to each sample and allowed to react at 100° C. for 5 minutes. 5 ul was taken from the samples after the reaction, and dispensed into each well of acrylamide gel, and then immunoblotting was performed.

p62 and LC3 [4] = assay: Autophagy activity by immunofluorescence staining and confocal microscopy (Experimental Example 5); settings: HeLa cells, 5 uM, 24 hours, FIG. 6
Description: In order to confirm the p62 protein activity and the activity level of autophagy phenomenon by the compounds (Examples 1-25), immunofluorescence staining was performed using p62 and LC3 as markers. In order to confirm the p62 activity and the activity level of autophagy phenomenon by new p62 ligands and isomers thereof in cultured cells, HeLa cell line, which is a cell line derived from cervical cancer patient, was treated with the novel p62 ligand compounds (YTK-1205, YTK-1305, YTK-2205, YTK-3305, YTK-105, YTK-205, YT 5-1, YT 9-1, YT 5-2, YT 9-2, YT 8-2, YT 8-1, YTK-107, YTK-207) and cultured. Thereafter, as markers of the autophagy phenomenon, the expression level and location of LC3 puncta and the local co-existence with p62 puncta were observed.
For immunofluorescence staining, a cover glass was placed on a 24-well plate, cells were dispensed, cultured for 24 hours, and then treated with 5 uM of the novel p62 ligands according to the present invention. For the action of the compounds, additional cultures were performed for 24 hours, and then the medium was removed. Cells were fixed using formaldehyde at room temperature. In order to prevent non-specific staining, the cells were allowed to react with a blocking solution at room temperature for 1 hour, and then treated with LC3 antibody diluted at a certain ratio using the blocking solution, and allowed to reacted at room temperature for 1 hour. The antibody-treated cells were washed three times with PBS, and goat-derived secondary antibody was diluted at a certain ratio using the blocking solution, and then allowed to react at room temperature for 30 minutes. The cells were washed again with PBS three times, and for intracellular nuclear staining, the expression level, intracellular puncta formation and intracellular coexistence level of p62 and LC3 were observed through a confocal microscopy after DAPI staining.

SMILES	p62 activation and oligomerization, delivery to autophagosome, autophagy activity (p62 and LC3 puncta) of control compounds (p62 and LC3 [1])	autophagy activity (level of LC3) (LC3 [2])	autophagy activity (level of LC3) (LC3 [3])	p62 activation and oligomerization, delivery to autophagosome, autophagy activity (p62 and LC3 puncta, local coexistence) (p62 and LC3 [4])
CCOC(=O)C(C)NC[C@@H](O)COc1ccc(OCc2ccccc2)c(OCc2ccccc2)c1 (stereo partly drawn) [YOK ALA-1104, Ethyl (R)-(3-(3,4-bis(benzyloxy)phenoxy)-2-hydroxypropyl)alanineate]	allow the activation and oligomerization of p62 proteins and then show the efficacy of delivering them to autophagosome and simultaneously increasing autophagy activity			
COC(=O)CNC[C@@H](O)COc1ccc(OCc2ccccc2)c(OCc2ccccc2)c1 [YOK R-Gly-1104, Methyl (R)-(3-(3,4-bis(benzyloxy)phenoxy)-2-hydroxypropyl)glycineate]	allow the activation and oligomerization of p62 proteins and then show the efficacy of delivering them to autophagosome and simultaneously increasing autophagy activity			
OCCCCc1ccc(OCc2ccccc2)c(OCc2ccccc2)c1 [YTK HCl-1105-1, 4-(3,4-bis(benzyloxy)phenyl)butan-1-ol]	allow the activation and oligomerization of p62 proteins and then show the efficacy of delivering them to autophagosome and simultaneously increasing autophagy activity			
OCCNCc1cccc(OCCc2ccccc2)c1 [YTK-205, 2-((3-(phenethoxy)benzyl)amino)ethan-1-ol]		increasing the autophagy activity	increasing the autophagy activity	allow the activation and oligomerization of p62 proteins, and then show the efficacy of delivering them to autophagosome and simultaneously increasing autophagy activity
OCCNCc1ccc(OCc2ccccc2)c(O)c1 [YTK-HCl-1005, 2-(benzyloxy)-5-(((2-hydroxyethyl)amino)methyl)phenol]	allow the activation and oligomerization of p62 proteins and then show the efficacy of delivering them to autophagosome and simultaneously increasing autophagy activity	increasing the autophagy activity	increasing the autophagy activity	
